Source: PubChem BioAssay (NCI)
Where “and” joins values, the source holds several entries; their conditions need not be identical. Identical values can stand only once.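 Exposure lasted 48 hours, with cells grown in 96-well plates and compounds tested at five concentrations. Abbreviation: GI50, concentration required for 50% inhibition of growth. TGI marks complete inhibition of growth.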

Key:
Experiment in all cases: DTP human tumour cell line panel, 48 h
A498 renal = system: A498 renal
A549 NSCLC = system: A549 NSCLC
ACHN renal = system: ACHN renal
CAKI-1 renal = system: CAKI-1 renal
COLO 205 colon = system: COLO 205 colon
DU-145 prostate = system: DU-145 prostate
EKVX NSCLC = system: EKVX NSCLC
HCC-2998 colon = system: HCC-2998 colon
HCT-15 colon = system: HCT-15 colon
HL-60(TB) leukemia = system: HL-60(TB) leukemia
HOP-62 NSCLC = system: HOP-62 NSCLC
HS 578T breast = system: HS 578T breast
HT29 colon = system: HT29 colon
IGROV1 ovarian = system: IGROV1 ovarian
K-562 leukemia = system: K-562 leukemia
KM12 colon = system: KM12 colon
LOX IMVI melanoma = system: LOX IMVI melanoma
M14 melanoma = system: M14 melanoma
MALME-3M melanoma = system: MALME-3M melanoma
MCF7 breast = system: MCF7 breast
MDA-MB-231 breast = system: MDA-MB-231 breast
MDA-MB-435 = system: MDA-MB-435
MDA-MB-468 breast = system: MDA-MB-468 breast
MOLT-4 leukemia = system: MOLT-4 leukemia
NCI-H226 lung = system: NCI-H226 lung
NCI-H23 lung = system: NCI-H23 lung
NCI-H460 lung = system: NCI-H460 lung
NCI-H522 lung = system: NCI-H522 lung
OVCAR-3 ovarian = system: OVCAR-3 ovarian
OVCAR-4 ovarian = system: OVCAR-4 ovarian
OVCAR-5 ovarian = system: OVCAR-5 ovarian
OVCAR-8 ovarian = system: OVCAR-8 ovarian
PC-3 prostate = system: PC-3 prostate
RXF 393 renal = system: RXF 393 renal
SF-268 CNS = system: SF-268 CNS
SF-295 CNS = system: SF-295 CNS
SF-539 CNS = system: SF-539 CNS
SK-MEL-2 melanoma = system: SK-MEL-2 melanoma
SK-MEL-28 melanoma = system: SK-MEL-28 melanoma
SK-MEL-5 melanoma = system: SK-MEL-5 melanoma
SK-OV-3 ovarian = system: SK-OV-3 ovarian
SN12C renal = system: SN12C renal
SNB-19 CNS = system: SNB-19 CNS
SNB-75 CNS = system: SNB-75 CNS
SR leukemia = system: SR leukemia
SW-620 colon = system: SW-620 colon
T-47D breast = system: T-47D breast
TK-10 renal = system: TK-10 renal
U251 CNS = system: U251 CNS
UACC-257 melanoma = system: UACC-257 melanoma
UACC-62 melanoma = system: UACC-62 melanoma
UO-31 renal = system: UO-31 renal

## O=c1oc2ccc(-c3ccc(F)cc3F)cc2c(=O)n1-c1ccc(Cl)c(C(F)(F)F)c1
A498 renal
  GI50: 2.95 µM
  TGI: 8.94 µM
A549 NSCLC
  GI50: 3.53 µM
  TGI: 13.1 µM
ACHN renal
  GI50: 3.24 µM
  TGI: 12.3 µM
CAKI-1 renal
  GI50: 2.29 µM
  TGI: 8.98 µM
COLO 205 colon
  GI50: 16.5 µM
  TGI: 30.9 µM
DU-145 prostate
  GI50: 4.03 µM
  TGI: 14.3 µM
EKVX NSCLC
  GI50: 2.85 µM
  TGI: 12.2 µM
HCC-2998 colon
  GI50: 3.58 µM
  TGI: 12.8 µM
HCT-15 colon
  GI50: 3.19 µM
  TGI: 12.4 µM
HL-60(TB) leukemia
  GI50: 4.66 µM
  TGI: 47.2 µM
HOP-62 NSCLC
  GI50: 4.18 µM
  TGI: 14.6 µM
HS 578T breast
  GI50: 2.6 µM
  TGI: 8.26 µM
HT29 colon
  GI50: 16.7 µM
  TGI: 31.4 µM
IGROV1 ovarian
  GI50: 4.42 µM
  TGI: 15.8 µM
K-562 leukemia
  GI50: 3.18 µM
  TGI: > 100 µM
KM12 colon
  GI50: 3.86 µM
  TGI: 14.8 µM
LOX IMVI melanoma
  GI50: 3.9 µM
  TGI: 13.9 µM
M14 melanoma
  GI50: 0.0652 µM
  TGI: 3.29 µM
MALME-3M melanoma
  GI50: 2.62 µM
  TGI: 7.28 µM
MCF7 breast
  GI50: 2.7 µM
  TGI: 10.4 µM
MDA-MB-231 breast
  GI50: 2.35 µM
  TGI: 6.97 µM
MDA-MB-435
  GI50: 3.49 µM
  TGI: 12.6 µM
MDA-MB-468 breast
  GI50: 2.4 µM and 2.82 µM
  TGI: 6.08 µM and 7.81 µM
MOLT-4 leukemia
  GI50: 2.85 µM
  TGI: 15 µM
NCI-H226 lung
  GI50: 2.11 µM
  TGI: 12.5 µM
NCI-H23 lung
  GI50: 2.47 µM
  TGI: 8.59 µM
NCI-H460 lung
  GI50: 3.27 µM
  TGI: 11.2 µM
NCI-H522 lung
  GI50: 2.52 µM
  TGI: 7.84 µM
OVCAR-3 ovarian
  GI50: 3.22 µM
  TGI: 11 µM
OVCAR-4 ovarian
  GI50: 4.19 µM
  TGI: 16.7 µM
OVCAR-5 ovarian
  GI50: 5.98 µM
  TGI: 21.4 µM
OVCAR-8 ovarian
  GI50: 4.38 µM
  TGI: 17.9 µM
PC-3 prostate
  GI50: 2.04 µM
  TGI: 10.9 µM
RXF 393 renal
  GI50: 2.21 µM
  TGI: 6.51 µM
SF-268 CNS
  GI50: 3.39 µM
  TGI: 11.9 µM
SF-295 CNS
  GI50: 7.02 µM
  TGI: 20.5 µM
SF-539 CNS
  GI50: 3.9 µM
  TGI: 14.7 µM
SK-MEL-2 melanoma
  GI50: 2 µM
  TGI: 5.02 µM
SK-MEL-28 melanoma
  GI50: 4.3 µM
  TGI: 15.9 µM
SK-MEL-5 melanoma
  GI50: 1.96 µM
  TGI: 4.04 µM
SK-OV-3 ovarian
  GI50: 2.3 µM
  TGI: 6.3 µM
SN12C renal
  GI50: 2.89 µM
  TGI: 9.46 µM
SNB-19 CNS
  GI50: 3.28 µM
  TGI: 13.4 µM
SNB-75 CNS
  GI50: 2.23 µM
  TGI: 13.4 µM
SR leukemia
  GI50: 1.79 µM
  TGI: 5.54 µM
SW-620 colon
  GI50: 3.93 µM
  TGI: 14.9 µM
T-47D breast
  GI50: 2.42 µM
  TGI: 6.76 µM
TK-10 renal
  GI50: 3.98 µM
  TGI: 11.7 µM
U251 CNS
  GI50: 3.23 µM
  TGI: 11.1 µM
UACC-257 melanoma
  GI50: 3.41 µM
  TGI: 14.4 µM
UACC-62 melanoma
  GI50: 2.89 µM
  TGI: 10.4 µM
UO-31 renal
  GI50: 3.45 µM
  TGI: 14 µM
